Measured values: BindingDB's records for doi:10.1021/jm00092a019 (Bristol-Myers Squibb Pharmaceutical Research Institute, 1992)

How the values were obtained:
[1] = Inhibition of platelet aggregation using adenosine diphosphate (ADP) as activating agent in human platelet rich plasma (PRP)
[2] = Inhibition of ADP-induced platelet aggregation in rabbit platelet rich plasma (PRP)
[3] = Inhibition of platelet aggregation using Adenosine diphosphate (ADP) as activating agent in rabbit platelet rich plasma (PRP)
[4] = Inhibition of platelet aggregation using adenosine diphosphate (ADP) as activating agent in human platelet rich plasma PRP
[5] = Inhibition of platelet aggregation using Adenosine diphosphate (ADP) as activating agent in rabbit platelet rich plasma (PRP); remark: listed apart in the source
P2Y purinoceptor 12 = P2Y purinoceptor 12 (Homo sapiens, UniProt Q9H244); experiment: Inhibition of platelet aggregation using adenosine diphosphate (ADP) as activating agent in human platelet rich plasma (PRP)
Sequence of P2Y purinoceptor 12 (Q9H244 whole entry): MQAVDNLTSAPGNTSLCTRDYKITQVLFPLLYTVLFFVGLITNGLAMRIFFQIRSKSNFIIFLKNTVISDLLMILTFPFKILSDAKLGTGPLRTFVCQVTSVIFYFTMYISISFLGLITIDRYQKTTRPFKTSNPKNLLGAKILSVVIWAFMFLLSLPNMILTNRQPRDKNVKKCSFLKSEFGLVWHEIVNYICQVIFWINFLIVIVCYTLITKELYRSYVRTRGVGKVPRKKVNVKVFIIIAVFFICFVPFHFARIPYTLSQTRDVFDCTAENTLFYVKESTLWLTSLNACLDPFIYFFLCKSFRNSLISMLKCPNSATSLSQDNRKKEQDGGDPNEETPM

| SMILES | EC50 [1] | EC50 [3] | EC50 [5] | other results |
| --- | --- | --- | --- | --- |
| CC(O)CCCOc1ccc2nc3[nH]c(=O)[nH]c3cc2c1 (stereo unspecified) | 100 nM |  |  | EC50 [2]: 520 nM |
| CCOC(=O)CN(C(=O)CCCOc1ccc2nc3[nH]c(=O)[nH]c3cc2c1)C1CCCCC1 |  | 20 nM |  |  |
| COC(=O)CCCOc1ccc2nc3[nH]c(=O)[nH]c3cc2c1 |  |  | 66 nM | EC50 [4]: 83 nM |
| O=c1[nH]c2cc3cc(OCCCS(=O)(=O)c4ccccc4)ccc3nc2[nH]1 |  | 390 nM |  |  |
| CN(C(=O)CCCOc1ccc2c(c1)CN1CC(=O)NC1=N2)C1CCCCC1 | 440 nM |  | 100 nM |  |
| CN(C(=O)CCCCc1ccc2nc3[nH]c(=O)[nH]c3cc2c1)C1CCCCC1 | 1100 nM |  | 210 nM |  |
| O=C(O)CCCCCOc1ccc2nc3[nH]c(=O)[nH]c3cc2c1 |  | 3170 nM |  |  |
| N#CCCCCOc1ccc2nc3[nH]c(=O)[nH]c3cc2c1 |  | 1320 nM |  |  |
| CCOC(=O)C1CCN(C(=O)CCCOc2ccc3nc4[nH]c(=O)[nH]c4cc3c2)CC1 |  | 210 nM |  |  |
| O=C(CCCCc1ccc2nc3[nH]c(=O)[nH]c3cc2c1)NC12C[C@H]3C[C@@H](C1)C[C@@H](C2)C3 | 5260 nM |  | 960 nM |  |
| CN(C(=O)CCCOc1ccc2nc3[nH]c(=O)[nH]c3cc2c1)C1CCCCCC1 |  | 60 nM |  |  |
| O=c1[nH]c2cc3cc(OCCCc4nnn[nH]4)ccc3nc2[nH]1 | > 100000 nM |  | 6320 nM |  |
| O=c1[nH]c2cc3cc(OCCCO)ccc3nc2[nH]1 |  | 770 nM |  |  |
| Cn1c(=O)[nH]c2nc3ccc(OCCCC(=O)N4CCCCC4)cc3cc21 |  | 10900 nM |  |  |
| CC(=O)CCCOc1ccc2nc3[nH]c(=O)[nH]c3cc2c1 |  | 1400 nM |  |  |
| COC(=O)CCCCOc1ccc2nc3[nH]c(=O)[nH]c3cc2c1 |  | 950 nM |  |  |
| CNC(=O)CCCOc1ccc2nc3[nH]c(=O)[nH]c3cc2c1 | 71600 nM | 1330 nM |  |  |
| O=C(O)CCCCOc1ccc2nc3[nH]c(=O)[nH]c3cc2c1 | > 106000 nM | > 106000 nM |  |  |
| COC(=O)CCCCCOc1ccc2nc3[nH]c(=O)[nH]c3cc2c1 |  | 90 nM |  |  |
| CN(C(=O)CCCCOc1ccc2nc3[nH]c(=O)n(C)c3cc2c1)C1CCCCCC1 | 540 nM |  | 140 nM |  |
| CN(C(=O)CCCCOc1ccc2nc3[nH]c(=O)[nH]c3cc2c1)C1CCCCC1 |  | 8 nM |  |  |
| Cn1c(=O)[nH]c2nc3ccc(OCCCC(=O)NC4CCCCC4)cc3cc21 | 7840 nM | 180 nM |  |  |

| SMILES | EC50 [1] | EC50 [3] | EC50 [5] | other results |
| --- | --- | --- | --- | --- |
| CN(C(=O)CCCOc1ccc2nc3c(cc2c1)[nH]c(=O)n3C)C1CCCCC1 | 33000 nM |  | 520 nM |  |
| CC(=O)OCCOc1ccc2nc3[nH]c(=O)[nH]c3cc2c1 |  | 870 nM |  |  |
| O=C(CCCOc1ccc2nc3[nH]c(=O)[nH]c3cc2c1)N1CCCCC1 |  |  |  | EC50 (P2Y purinoceptor 12): 130 nM |
| O=C(O)CCCOc1ccc2c(c1)CN1CC(=O)NC1=N2 | > 100000 nM |  | 6910 nM |  |
| O=C(CCCOc1ccc2nc3[nH]c(=O)[nH]c3cc2c1)NC1CCCCCC1 | 16 nM |  | 390 nM |  |
| COC(=O)CN(C(=O)CCCOc1ccc2nc3[nH]c(=O)[nH]c3cc2c1)C1CCCCC1 | 0.7 nM | 6 nM |  |  |
| CN(C(=O)CCCOc1ccc2nc3[nH]c(=O)n(C)c3cc2c1)C1CCCCCC1 | 1220 nM | 70 nM |  |  |
| Cn1c(=O)[nH]c2nc3ccc(OCCCCC(=O)O)cc3cc21 |  | > 100000 nM |  |  |
| O=C(CCCOc1ccc2nc3[nH]c(=O)[nH]c3cc2c1)NC1CCCC1 |  | 420 nM |  |  |
| N#CCCCOc1ccc2nc3[nH]c(=O)[nH]c3cc2c1 | 600 nM |  | 180 nM |  |
| CN(C(=O)CCCOc1ccc2nc3[nH]c(=O)n(C)c3cc2c1)C1CCCCC1 |  | 50 nM |  |  |
| O=c1[nH]c2cc3cc(OCCCCS(=O)(=O)c4ccccc4)ccc3nc2[nH]1 | 10 nM |  | 180 nM |  |
| CN(C(=O)CCCCCOc1ccc2nc3[nH]c(=O)[nH]c3cc2c1)C1CCCCC1 | 540 nM |  | 20 nM |  |
| Cn1c(=O)[nH]c2nc3ccc(OCCCS(=O)(=O)c4ccccc4)cc3cc21 |  | 50300 nM |  |  |
| CN(C)C(=O)CCCOc1ccc2nc3[nH]c(=O)[nH]c3cc2c1 | 190 nM |  |  |  |
| O=c1[nH]c2cc3cc(CCCO)ccc3nc2[nH]1 |  | 2470 nM |  |  |
| CN(C(=O)CCCCOc1ccc2nc3[nH]c(=O)[nH]c3cc2c1)C1CCCCCC1 | 1 nM |  | 5 nM |  |
| COC(=O)CCCOc1ccc2nc3c(cc2c1)[nH]c(=O)n3C | 29800 nM | 360 nM |  |  |
| CN(C(=O)CCCOc1ccc2nc3c(cc2c1)n(C)c(=O)n3C)C1CCCCC1 |  | 26700 nM |  |  |
| NC(=O)CCCOc1ccc2nc3[nH]c(=O)[nH]c3cc2c1 | 3020 nM | 6040 nM |  |  |
| O=C(CCCOc1ccc2nc3[nH]c(=O)[nH]c3cc2c1)NC1CCCCC1 |  | 40 nM |  |  |
| COC(=O)CCCCc1ccc2nc3[nH]c(=O)[nH]c3cc2c1 | 3000 nM |  | 430 nM |  |

| SMILES | EC50 [1] | EC50 [3] | EC50 [5] | other results |
| --- | --- | --- | --- | --- |
| O=C(O)CCCCc1ccc2nc3[nH]c(=O)[nH]c3cc2c1 | > 112000 nM |  | 63100 nM |  |
| CC(=O)OCCCCOc1ccc2nc3[nH]c(=O)[nH]c3cc2c1 |  | 950 nM |  |  |
| COC(=O)CCCOc1ccc2nc3c(cc2c1)n(C)c(=O)n3C |  | > 87500 nM |  |  |
| CCOCCOc1ccc2nc3[nH]c(=O)[nH]c3cc2c1 |  | 4840 nM |  |  |
| O=C(O)CN(C(=O)CCCOc1ccc2nc3[nH]c(=O)[nH]c3cc2c1)C1CCCCC1 | 9600 nM |  | 910 nM |  |
| CN(C(=O)CCCCOc1ccc2nc3[nH]c(=O)n(C)c3cc2c1)C1CCCCC1 |  | 150 nM |  |  |
| Cn1c(=O)[nH]c2cc3cc(OCCCC(=O)O)ccc3nc21 | > 26500 nM |  | 1660 nM |  |
| Cn1c(=O)[nH]c2nc3ccc(OCCCC(=O)O)cc3cc21 |  | > 106000 nM |  |  |
| CN(C(=O)CCCOc1ccc2nc3[nH]c(=O)[nH]c3cc2c1)C1CCCCC1 | 7 nM |  |  |  |
| CCOC(=O)CCCOc1ccc2nc3[nH]c(=O)[nH]c3cc2c1 | 38 nM |  | 630 nM |  |
| O=C(CCCOc1ccc2nc3[nH]c(=O)[nH]c3cc2c1)NC12C[C@H]3C[C@@H](C1)C[C@@H](C2)C3 | 20 nM |  | 120 nM |  |
| CCOC(=O)CCc1ccc2nc3[nH]c(=O)[nH]c3cc2c1 |  | 440 nM |  |  |
| O=C(CCCCc1ccc2nc3[nH]c(=O)[nH]c3cc2c1)N1CCCCC1 | 15500 nM | 420 nM |  |  |
| CCOC(=O)COc1ccc2nc3[nH]c(=O)[nH]c3cc2c1 |  | 24300 nM |  |  |
| O=C(O)COc1ccc2nc3[nH]c(=O)[nH]c3cc2c1 |  | 1910 nM |  |  |
| COC(=O)C=CC=Cc1ccc2nc3[nH]c(=O)[nH]c3cc2c1 |  | 2690 nM |  |  |
| O=C(O)C1CCN(C(=O)CCCOc2ccc3nc4[nH]c(=O)[nH]c4cc3c2)CC1 | 45300 nM |  | 380 nM |  |
| O=c1[nH]c2cc3cc(CCCCCO)ccc3nc2[nH]1 |  | 2950 nM |  |  |
| CC(=O)OCCCOc1ccc2nc3[nH]c(=O)[nH]c3cc2c1 |  | 330 nM |  |  |
| COC(=O)CCCCOc1ccc2nc3[nH]c(=O)n(C)c3cc2c1 |  | 9110 nM |  |  |
| O=c1[nH]c2cc3cc(OCCCCc4nnn[nH]4)ccc3nc2[nH]1 | 51000 nM | 5400 nM |  |  |
| CCOC(=O)C=Cc1ccc2nc3[nH]c(=O)[nH]c3cc2c1 |  | 440 nM |  |  |
